ChEMBL document CHEMBL3727356, “Therapeutic compounds and compositions” (2014)

What was measured:
Pyruvate kinase PKLR [1] = target: Pyruvate kinase PKLR (Homo sapiens, UniProt P30613, R532W); assay: Activation of PKR R532W mutant (unknown origin) incubated for 60 mins in presence of ADP, PEP and NADH by Spectraax microplate reader based assay
Pyruvate kinase PKLR [2] = target: T1, Pyruvate kinase PKLR (Homo sapiens, UniProt P30613); assay: Activation of wild type PKR (unknown origin) incubated for 60 mins in presence of ADP, PEP and NADH by Spectraax microplate reader based assay
Pyruvate kinase PKLR [3] = target: T1, Pyruvate kinase PKLR; assay: Activation of wild type PKR (unknown origin) by cell based assay

T1 sequence (P30613 whole entry): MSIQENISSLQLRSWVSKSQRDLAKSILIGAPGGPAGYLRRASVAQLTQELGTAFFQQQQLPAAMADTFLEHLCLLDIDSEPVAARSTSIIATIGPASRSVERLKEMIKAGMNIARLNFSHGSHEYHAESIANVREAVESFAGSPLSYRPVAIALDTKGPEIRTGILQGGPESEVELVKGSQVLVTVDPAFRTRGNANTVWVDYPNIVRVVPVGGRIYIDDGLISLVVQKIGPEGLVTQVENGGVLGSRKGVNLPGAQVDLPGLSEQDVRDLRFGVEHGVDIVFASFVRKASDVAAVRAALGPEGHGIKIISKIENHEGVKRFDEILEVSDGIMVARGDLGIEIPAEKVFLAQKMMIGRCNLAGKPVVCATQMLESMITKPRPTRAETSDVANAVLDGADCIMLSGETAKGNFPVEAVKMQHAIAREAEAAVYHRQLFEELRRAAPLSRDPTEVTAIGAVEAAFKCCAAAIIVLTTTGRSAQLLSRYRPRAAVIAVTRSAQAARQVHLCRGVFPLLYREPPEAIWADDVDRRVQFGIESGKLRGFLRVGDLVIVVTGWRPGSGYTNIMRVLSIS
Chain of Pyruvate kinase PKLR (Homo sapiens, UniProt P30613, R532W) (P30613 whole entry R532W): as the sequence (P30613 whole entry) above, with R532W counted along it

Compound | AC50 (Pyruvate kinase PKLR [1]) [nM] | AC50 (Pyruvate kinase PKLR [2]) [nM] | AC50 (Pyruvate kinase PKLR [3]) [nM]
O=C(c1ccc(NS(=O)(=O)c2cccc3cccnc23)cc1)N1CCC(O)(Cc2cccnc2)CC1 | < 100 | < 100 | 
CC(F)(F)CCC1(O)CCN(C(=O)c2ccc(NS(=O)(=O)c3cccc4scnc34)cc2OC(F)F)CC1 | < 100 | < 100 | 
C=C(C)CC1(O)CCN(C(=O)c2ccc(NS(=O)(=O)c3cccc4scnc34)cc2)CC1 | < 100 | < 100 | 
CC(C)(F)CC1(O)CCN(C(=O)c2ccc(NS(=O)(=O)c3cccc4scnc34)cc2)CC1 | < 100 |  | < 100
Cn1cc(C2(O)CCN(C(=O)c3ccc(NS(=O)(=O)c4cccc5scnc45)cc3)CC2)cn1 | < 100 |  | < 100
O=C(c1ccc(NS(=O)(=O)c2cccc3cccnc23)cc1)N1CCC(O)(c2cccnc2F)CC1 |  | < 100 | 
O=C(c1ccc(NS(=O)(=O)c2cc(F)cc3scnc23)cc1)N1CCC(O)(c2ccccc2Cl)CC1 | < 100 | < 100 | 
COc1cc(NS(=O)(=O)c2cccc3cccnc23)ccc1C(=O)N1CCC(O)(c2ccccc2Cl)CC1 | < 100 | < 100 | 
CC(C)CC1(O)CCN(C(=O)c2ccc(NS(=O)(=O)c3cccc(O)c3N)cc2)CC1 |  | < 100 | < 100
CC(F)(F)CCC1(O)CCN(C(=O)c2ccc(NS(=O)(=O)c3cccc4nccnc34)cc2)CC1 |  | < 100 | < 100
Cc1n[nH]c(C)c1CC1(O)CCN(C(=O)c2ccc(NS(=O)(=O)c3cccc4scnc34)cc2)CC1 | < 100 | < 100 | 
O=C(c1ccc(NS(=O)(=O)c2cccc3scnc23)cc1)N1CCC(O)(Cc2cn[nH]c2)CC1 | < 100 | < 100 | 
CC(F)(F)CCC1(O)CCN(C(=O)c2ccc(NS(=O)(=O)c3cccc4nccnc34)cc2OC(F)F)CC1 | < 100 |  | 
CC(C)CC1(OC(=O)OCOP(=O)(O)O)CCN(C(=O)c2ccc(NS(=O)(=O)c3cccc4nccnc34)cc2)CC1 |  |  | < 100
Cc1nc(C(=O)N2CCC(O)(c3ccccc3Cl)CC2)ccc1NS(=O)(=O)c1cccc2cccnc12 | < 100 | < 100 | 
Cn1nccc1CC1(O)CCN(C(=O)c2ccc(NS(=O)(=O)c3cccc4scnc34)cc2)CC1 | < 100 |  | 
O=C(c1ccc(NS(=O)(=O)c2cccc3ccc(F)nc23)cc1)N1CCC(O)(c2ccccc2Cl)CC1 | < 100 | < 100 | 
O=C(c1ccc(NS(=O)(=O)c2cccc3scnc23)cc1)N1CCC(O)(Cc2nc(Cl)cs2)CC1 |  | < 100 | 
O=C(c1ccc(NS(=O)(=O)c2cccc3nccnc23)cc1)N1CCC(O)(Cc2cn[nH]c2)CC1 | < 100 | < 100 | 
CC(C)CC1(O)CCN(C(=O)c2ccc(NS(=O)(=O)c3cccc4snnc34)cc2)CC1 | > 10000 | > 10000 | 
O=C(c1ccc(NS(=O)(=O)c2cccc3cccnc23)cc1)N1CCC(O)(/C=C/C(F)F)CC1 |  | < 100 | 

Compound | AC50 (Pyruvate kinase PKLR [1]) [nM] | AC50 (Pyruvate kinase PKLR [2]) [nM] | AC50 (Pyruvate kinase PKLR [3]) [nM]
O=C(c1ccc(NS(=O)(=O)c2cccc3nccnc23)cc1)N1CCC(O)(CC2CC2)CC1 | < 100 | < 100 | 
Cc1noc(C)c1CC1(O)CCN(C(=O)c2ccc(NS(=O)(=O)c3cccc4scnc34)cc2)CC1 | < 100 | < 100 | 
CC(F)(F)CCC1(O)CCN(C(=O)c2ccc(NS(=O)(=O)c3cccc4scnc34)cc2)CC1 | < 100 | < 100 | 
Nc1c(O)cccc1S(=O)(=O)Nc1ccc(C(=O)N2CCC(O)(c3ccccc3Cl)CC2)cc1 |  | < 100 | < 100
O=C(c1ccc(NS(=O)(=O)c2cccc3cccnc23)cc1)N1CCC(O)(c2ncccc2F)CC1 | < 100 | < 100 | 
CC(C)CC1(O)CCN(C(=O)c2ccc(NS(=O)(=O)c3cc(F)cc4scnc34)cc2)CC1 | < 100 | < 100 | 
O=C(c1ccc(NS(=O)(=O)c2cccc3ocnc23)cc1)N1CCC(O)(c2ccccc2Cl)CC1 |  | < 100 | 
O=C(c1ccc(NS(=O)(=O)c2cccc3nccnc23)cc1)N1CCC(O)(c2ccccc2)CC1 |  |  | < 100
O=C(c1ccc(NS(=O)(=O)c2cccc3nccnc23)cc1)N1CCC(O)(CCC(F)(F)F)CC1 | < 100 | < 100 | 
O=C(c1ccc(NS(=O)(=O)c2cccc3c2OCCO3)cc1)N1CCC(O)(Cc2ccccc2)CC1 | < 100 | < 100 | < 100
Nc1nc2c(S(=O)(=O)Nc3ccc(C(=O)N4CCC(O)(CCC(F)(F)F)CC4)cc3)cccc2s1 | < 100 | < 100 | 
O=C(c1ccc(NS(=O)(=O)c2cccc3scnc23)cc1)N1CCC(O)(CCC(F)=C(F)F)CC1 | < 100 | < 100 | 
CC(C)CC1(CO)CCN(C(=O)c2ccc(NS(=O)(=O)c3cccc4nccnc34)cc2)CC1 | < 100 | < 100 | 
CC(C)CC1(CO)CCN(C(=O)c2ccc(NS(=O)(=O)c3cccc4scnc34)cc2)CC1 | < 100 | < 100 | 
O=C(c1ccc(NS(=O)(=O)c2cccc3cccnc23)c2ccccc12)N1CCC(O)(c2ccccc2Cl)CC1 | < 100 | < 100 | 
CC(C)(O)CCCC1(O)CCN(C(=O)c2ccc(NS(=O)(=O)c3cccc4nccnc34)cc2)CC1 | > 10000 | > 10000 | 
CCOCC1(O)CCN(C(=O)c2ccc(NS(=O)(=O)c3cccc4cccnc34)cc2)CC1 | < 100 |  | 
COc1ccccc1C1(O)CCN(C(=O)c2ccc(NS(=O)(=O)c3cccc4cccnc34)cc2)CC1 | < 100 | < 100 | 
O=C(c1ncc(NS(=O)(=O)c2cccc3cccnc23)cn1)N1CCC(O)(c2ccccc2)CC1 |  | > 10000 | 
N#Cc1cccc(S(=O)(=O)Nc2ccc(C(=O)N3CCC(O)(Cc4ccccc4)CC3)cc2)c1 |  | > 10000 | 
O=C(c1ccc(NS(=O)(=O)c2cccc3cccnc23)cc1)N1CCC(O)(Cc2ccccn2)CC1 | < 100 | < 100 | 

Further lines, results first:

AC50 (Pyruvate kinase PKLR [1]) [nM] | AC50 (Pyruvate kinase PKLR [2]) [nM] | AC50 (Pyruvate kinase PKLR [3]) [nM] | Compound
< 100 | < 100 |  | COc1ncccc1C1(O)CCN(C(=O)c2ccc(NS(=O)(=O)c3cccc4cccnc34)cc2)CC1
< 100 | < 100 |  | O=C(c1ccc(NS(=O)(=O)c2cccc3scnc23)cc1)N1CCC(O)(c2ccccc2C(F)F)CC1
< 100 |  | < 100 | O=C(c1ccc(NS(=O)(=O)c2cccc3cccnc23)cc1)N1CCC(O)(c2ccccc2O)CC1
< 100 | < 100 |  | O=C(c1ccc(NS(=O)(=O)c2cc(F)cc3cccnc23)cc1)N1CCC(O)(c2ccccc2Cl)CC1
< 100 | < 100 |  | Cc1cccc(CC2(O)CCN(C(=O)c3ccc(NS(=O)(=O)c4cccc5cccnc45)cc3)CC2)n1
< 100 | < 100 |  | O=C(c1ccc(NS(=O)(=O)c2cccc3scnc23)cc1)N1CCC(O)(c2scnc2Cl)CC1
 | < 100 | < 100 | CS(=O)(=O)c1cccc(C2(O)CCN(C(=O)c3ccc(NS(=O)(=O)c4cccc5cccnc45)cc3)CC2)c1
< 100 | < 100 |  | O=C(c1ccc(NS(=O)(=O)c2cccc3scnc23)cc1)N1CCC(O)(CC2CC2(F)F)CC1 (stereo not drawn)
< 100 | < 100 |  | Cc1cc(C2(O)CCN(C(=O)c3ccc(NS(=O)(=O)c4cccc5scnc45)cc3)CC2)sn1
< 100 | < 100 |  | Cc1nc(C2(O)CCN(C(=O)c3ccc(NS(=O)(=O)c4cccc5cccnc45)cc3)CC2)ccc1F
 | < 100 |  | CC(F)(F)CCC1(O)CCN(C(=O)c2ccc(NS(=O)(=O)c3cc(F)cc4sc(N)nc34)cc2F)CC1
> 10000 | > 10000 |  | O=C(c1ccc(NS(=O)(=O)c2cccc3cnccc23)cc1)N1CCC(O)(c2ccccc2)CC1
< 100 |  |  | Cn1cc(CC2(O)CCN(C(=O)c3ccc(NS(=O)(=O)c4cccc5scnc45)cc3)CC2)cn1
< 100 | < 100 |  | O=C(c1ccc(NS(=O)(=O)c2ccc(F)c3cccnc23)cc1)N1CCC(O)(CC2CCC2)CC1
> 10000 | > 10000 |  | O=C(c1ccc(NS(=O)(=O)c2ccc(C(F)(F)F)cc2)cc1)N1CCC(O)(Cc2ccccc2)CC1
< 100 | < 100 |  | O=C(c1ccc(NS(=O)(=O)c2cc(F)cc3cccnc23)cc1)N1CCC(O)(c2ccccc2)CC1
> 10000 | > 10000 |  | CC(C)CC1(OP(=O)(O)O)CCN(C(=O)c2ccc(NS(=O)(=O)c3cccc4scnc34)cc2)CC1
< 100 | < 100 |  | O=C(c1ccc(NS(=O)(=O)c2cccc3ccoc23)cc1)N1CCC(O)(c2ccccc2Cl)CC1
 | < 100 |  | COCCC1(O)CCN(C(=O)c2ccc(NS(=O)(=O)c3cccc4cccnc34)cc2)CC1
< 100 | < 100 |  | Cc1ccc(C2(O)CCN(C(=O)c3ccc(NS(=O)(=O)c4cccc5cccnc45)cc3)CC2)c(Cl)c1
 |  | < 100 | CC(C)CC1(OC(=O)OCOP(=O)(O)O)CCN(C(=O)c2ccc(NS(=O)(=O)c3cccc4scnc34)cc2)CC1
< 100 | < 100 |  | O=C(c1ccc(NS(=O)(=O)c2cccc3scnc23)cc1)N1CCC(O)(CC2CC2)CC1
 |  | < 100 | O=C(c1ccc(NS(=O)(=O)c2cccc3nccnc23)cc1)N1CCC(O)(c2sncc2Cl)CC1
< 100 | < 100 |  | Cc1n[nH]c(C)c1CC1(O)CCN(C(=O)c2ccc(NS(=O)(=O)c3cccc4nccnc34)cc2)CC1
< 100 | < 100 |  | O=C(c1ccc(NS(=O)(=O)c2cccc3cccnc23)cc1)N1CCC(O)(Cc2cccc(C(F)(F)F)c2)CC1
< 100 | < 100 |  | Cc1cc(CC2(O)CCN(C(=O)c3ccc(NS(=O)(=O)c4cccc5nccnc45)cc3)CC2)sn1
> 10000 |  |  | O=C(c1ccc(NS(=O)(=O)c2cccnc2)cc1)N1CCC(O)(Cc2ccccc2)CC1
< 100 | < 100 |  | O=C(c1ccc(NS(=O)(=O)c2ccc(F)c3cccnc23)cc1)N1CCC(O)(Cc2ccccc2C(F)(F)F)CC1
< 100 | < 100 |  | Cc1cc(C2(O)CCN(C(=O)c3ccc(NS(=O)(=O)c4cccc5nccnc45)cc3)CC2)sn1
< 100 | < 100 |  | O=C(c1ccc(NS(=O)(=O)c2cccc3ccccc23)cc1)N1CCC(O)(c2ccccc2Cl)CC1
